Test results published in the NIST ThermoML archive (doi:10.1016/j.jct.2011.05.014).

Assay: excess molar enthalpy (molar enthalpy of mixing); xn = mol fraction of the nth substance listed
Conditions: 298.15 K, 101.33 kPa, Liquid, Parr 1455 Solution Calorimeter

O=Cc1ccccc1 [benzaldehyde] + CCCCCO
Conditions	excess molar enthalpy [kcal/mol]
x1 = 0.0899	0.152
x1 = 0.1799	0.2818
x1 = 0.2699	0.38
x1 = 0.36	0.435
x1 = 0.4499	0.4637
x1 = 0.54	0.4661
x1 = 0.6259	0.4405
x1 = 0.6898	0.4032
x1 = 0.7523	0.357
x1 = 0.8094	0.2997
x1 = 0.8426	0.261
x1 = 0.9015	0.184

O=Cc1ccccc1 [benzaldehyde] + CCCCO
Conditions	excess molar enthalpy [kcal/mol]
x1 = 0.0759	0.142
x1 = 0.1555	0.256
x1 = 0.2374	0.3417
x1 = 0.3186	0.4036
x1 = 0.4053	0.4345
x1 = 0.4922	0.4468
x1 = 0.5824	0.4391
x1 = 0.6314	0.4243
x1 = 0.6755	0.4059
x1 = 0.7923	0.3146
x1 = 0.8945	0.195
x1 = 0.9245	0.146

O=Cc1ccccc1 [benzaldehyde] + CCCO
Conditions	excess molar enthalpy [kcal/mol]
x1 = 0.0896	0.158
x1 = 0.1797	0.2632
x1 = 0.2698	0.3294
x1 = 0.3598	0.3728
x1 = 0.4822	0.391
x1 = 0.5559	0.3871
x1 = 0.5989	0.3774
x1 = 0.647	0.3642
x1 = 0.7017	0.3388
x1 = 0.7626	0.3006
x1 = 0.8323	0.237
x1 = 0.9112	0.146

O=Cc1ccccc1 [benzaldehyde] + CCO
Conditions	excess molar enthalpy [kcal/mol]
x1 = 0.0912	0.141
x1 = 0.1809	0.2267
x1 = 0.2707	0.2786
x1 = 0.3603	0.3025
x1 = 0.4503	0.3107
x1 = 0.5405	0.3059
x1 = 0.628	0.2864
x1 = 0.669	0.2707
x1 = 0.7164	0.2485
x1 = 0.7714	0.2182
x1 = 0.8358	0.17
x1 = 0.9114	0.101

O=Cc1ccccc1 [benzaldehyde] + CO
Conditions	excess molar enthalpy [kcal/mol]
x1 = 0.0877	0.0955
x1 = 0.1795	0.1561
x1 = 0.2704	0.1984
x1 = 0.3608	0.2242
x1 = 0.4509	0.2352
x1 = 0.5406	0.2337
x1 = 0.6153	0.223
x1 = 0.6966	0.1983
x1 = 0.7344	0.1826
x1 = 0.7803	0.1603
x1 = 0.8379	0.128
x1 = 0.9092	0.078
